Source: PMC12490239, “Combining BET inhibition with SMAC mimetics restricts tumor growth and triggers immune surveillance in preclinical cancer models” (Cell Reports Medicine, 2025)

Columns and labels:
Assay in all cases: cells
Set-up in all cases: CellTiter-Glo 2.0 luminescence proliferation/viability assay, single agents, human tumour cell line panel
[1] = tested on: A549; conditions: Homo sapiens, A549, 96 h; single agent; read-out: IC50 SMACm
Method in brief: (§1)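 Human tumour cell lines were seeded into assay plates and held at 37°C with 5% CO2 for twenty-four hours, then exposed in triplicate to rising concentrations of the SMAC mimetic, from 4.5 nM to 10 μM, with DMSO as control. After 96 h, viability was read as CellTiter-Glo2.0 luminescence to derive single-agent IC50 values.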

[2] = tested on: CAPAN-2; conditions: Homo sapiens, Capan-2, 96 h; single agent; read-out: IC50 SMACm
Method in brief: as §1

[3] = tested on: CAR1; conditions: Homo sapiens, CaR-1, 96 h; single agent; read-out: IC50 SMACm
Method in brief: as §1

[4] = tested on: CFPAC-1; conditions: Homo sapiens, CFPAC-1, 96 h; single agent; read-out: IC50 SMACm
Method in brief: as §1

[5] = tested on: COLO-201; conditions: Homo sapiens, COLO 201, 96 h; single agent; read-out: IC50 SMACm
Method in brief: as §1

[6] = tested on: COLO-320-HSR; conditions: Homo sapiens, COLO-320-HSR, 96 h; single agent; read-out: IC50 SMACm
Method in brief: as §1

[7] = tested on: Calu-6; conditions: Homo sapiens, Calu-6, 96 h; single agent; read-out: IC50 SMACm
Method in brief: as §1

[8] = tested on: HROC374; conditions: 96 h; single agent; read-out: IC50 SMACm
Method in brief: as §1

[9] = tested on: HUTU-80; conditions: Homo sapiens, HuTu80, 96 h; single agent; read-out: IC50 SMACm
Method in brief: as §1

[10] = tested on: KM12C; conditions: Homo sapiens, KM12C, 96 h; single agent; read-out: IC50 SMACm
Method in brief: as §1

[11] = tested on: KM12; conditions: Homo sapiens, KM12, 96 h; single agent; read-out: IC50 SMACm
Method in brief: as §1

[12] = tested on: NCI-H1792; conditions: Homo sapiens, NCI-H1792, 96 h; single agent; read-out: IC50 SMACm
Method in brief: as §1

[13] = tested on: SNU1235; conditions: 96 h; single agent; read-out: IC50 SMACm
Method in brief: as §1

[14] = tested on: SNU254; conditions: 96 h; single agent; read-out: IC50 SMACm
Method in brief: as §1

[15] = tested on: SNU503; conditions: 96 h; single agent; read-out: IC50 SMACm
Method in brief: as §1

IC50 [1]: > 10 µM | IC50 [5]: 369 nM | IC50 [6]: 2860 nM | IC50 [7]: 4.93 µM | IC50 [12]: 4.79 µM | IC50 [13]: 2140 nM | IC50 [14]: 1760 nM | IC50 [15]: 5.23 µM
SMILES: CN[C@@H](C)C(=O)Nc1ccc(-c2c(-c3cccnc3OC)nc3cc(C)ccn23)c(C#Cc2ccc3c(C)nccc3c2)n1 [SMACm, BI 891065]
IC50 [2]: 8.59 µM | IC50 [3]: 2100 nM | IC50 [4]: 1990 nM | IC50 [8]: 3.34 µM | IC50 [9]: 3.31 µM | IC50 [10]: 5.22 µM | IC50 [11]: 7.46 µM
